The record followed here is patent publication US20090111691A1, “Fungicides and Bioregulatory Mixtures” (priority 2005, published 2009).

The test system of this test is Puccinia recondita. The test is described as follows: Curative activity against brown rust of wheat (Puccrt K1), potted wheat seedlings cultivar Kanzler. It counts as in vivo. The note with it: efficacy in % of untreated control, sprayed 1 day after inoculation, rated after 7 days, read-out: Observed activity (%). As to the method: The active compounds were prepared separately or jointly as a stock solution with 25 mg of active compound which was made up to 10 ml using a mixture of acetone and/or DMSO and the emulsifier Uniperol® EL (wetting agent having emulsifying and dispersing action based on ethoxylated alkylphenols) in a volume ratio of solvent/emulsifier of 99 to 1. The mixture was then made up to 100 ml with water. This stock solution was diluted with the solvent/emulsifier/water mixture described to the concentration of active compounds stated below.
The visually determined percentages of infected leaf areas or the measured elongation were converted into efficacies in % of the untreated control:
The efficacy (E) is calculated as follows using Abbot's formula: […]
The expected efficacies of mixtures of active compounds were determined using Colby's formula (Colby, S. R. “Calculating synergistic and antagonistic responses of herbicide combinations”, Weeds, 15, pp. 20-22, 1967) and compared with the observed efficacies. […]
Leaves of potted wheat seedlings of the cultivar “Kanzler” were inoculated with a spore suspension of brown rust (Puccinia recondita). […] The extent of the rust fungus development on the leaves was then determined. The visually determined values for the percentage of infected leaf area were initially converted into a mean value and then converted into efficacies in % of the untreated control. […]

Consider `CCOC(=O)C1CC(=O)C(=C(O)C2CC2)C(=O)C1` (centres unmarked) [Trinexapac-ethyl, trinexapac-ethyl], for which the inhibition at 60 µg/mL (Conc. 0.06 mg/ml) worked out at 0%. As for `Fc1ccc(C2(Cn3cncn3)OC2c2ccccc2Cl)cc1` (centres unmarked) [Epoxiconazole, epoxiconazole], the inhibition at 250 µg/mL (Conc. 0.25 mg/ml) came out at 11%.
